Reference: patent US10722451B2, “Tree bark extract as anti-aging composition and uses thereof” (LES LABORATOIRES BIOFOREXTRA, priority 2017, dated 2020)

Legend:
[1] = UV protection in vitro by spectrophotometer (SPF calculation); format: physicochemical; conditions: 20 μg/ml in ethanol; absorbance 290-320 nm
[2] = tested on: type I Collagen in human skin fibroblasts (WS1); experiment: Stimulation of collagen type I in skin fibroblasts (immunofluorescence); format: cell-based; conditions: positive control at 10 ng/mL
Description: The effect of the extract on collagen stimulation was evaluated using specific antibodies to type I Collagen. Once bound to collagen, the primary antibody is detected by a secondary antibody on which a fluorophore is grafted. Human skin fibroblasts (WS1, ATCC CRL-1502) were seeded in 96-well microplates in a full decomplemented culture medium and incubated overnight at 37° C. and 5% CO2 to allow their adherence. Thereafter, the cells were incubated for 24 hours in the absence or presence of increasing concentrations of Red maple bark extract (12.5, 25, 50 and 100 μg/mL). The culture medium containing the extract was then removed and the cells were fixed with 95% ethanol for 10 minutes. The cells were washed three times with PBS and permeabilized with 0.5% Triton solution in PBS for 15 minutes. […] The fluorescence emitted by the secondary antibody was then measured and pictures were taken with a fluorescence microscope Cytation3.
The effect of the extract on collagen stimulation was evaluated using specific antibodies to type I Collagen. Once bound to collagen, the primary antibody is detected by a secondary antibody on which a fluorophore is grafted. […] The fluorescence emitted by the secondary antibody was then measured and pictures were taken with a fluorescence microscope Cytation3.

| SPF [1] | Molecule | average increase of collagen (fluorescence) compared to untreated cells [2] [%] |
| --- | --- | --- |
| 3.9 ± 0.2 | CC1CC(OC(=O)c2ccccc2O)CC(C)(C)C1 (centres unmarked) [Homosalate] | – |
| – | TGF-β | 56 |
